Measured values from the NIST ThermoML archive (doi:10.1016/j.fluid.2017.12.026).
Values joined by “and” are separate entries in the source; they are usually repeats but may differ in a detail not shown here. Equal entries are not always repeated. Numbers after ± are expanded uncertainties.

Conditions: Gas, Coaxial cylinder method

CCCCC [pentane]
Conditions | thermal conductivity
478.5 K, 46675 kPa | 0.1028 ± 0.0038 W/m/K
479.9 K, 100 kPa | 0.03642 ± 0.0013 W/m/K
482.02 K, 100 kPa | 0.03645 ± 0.0013 W/m/K
482.02 K, 2180 kPa | 0.03995 ± 0.0014 W/m/K
484.5 K, 7555 kPa | 0.07149 ± 0.0025 W/m/K
484.5 K, 10055 kPa | 0.0768 ± 0.0027 W/m/K
484.5 K, 19975 kPa | 0.08666 ± 0.0031 W/m/K
484.5 K, 25175 kPa | 0.09003 ± 0.0032 W/m/K
484.5 K, 27775 kPa | 0.09214 ± 0.0033 W/m/K
485.84 K, 1820 kPa | 0.03954 ± 0.0014 W/m/K
485.84 K, 1830 kPa | 0.03953 ± 0.0014 W/m/K
485.84 K, 1886 kPa | 0.03962 ± 0.0014 W/m/K
485.84 K, 2000 kPa | 0.04018 ± 0.0014 W/m/K
485.84 K, 2180 kPa | 0.04056 ± 0.0014 W/m/K
485.84 K, 2260 kPa | 0.04079 ± 0.0014 W/m/K
485.84 K, 2280 kPa | 0.04036 ± 0.0014 W/m/K
485.84 K, 2300 kPa | 0.04075 ± 0.0014 W/m/K
485.84 K, 2560 kPa | 0.04155 ± 0.0014 W/m/K
487.28 K, 1820 kPa | 0.03982 ± 0.0014 W/m/K
487.3 K, 100 kPa | 0.03739 ± 0.0013 W/m/K
497.3 K, 988 kPa | 0.03935 ± 0.0014 W/m/K
497.3 K, 2518 kPa | 0.04191 ± 0.0015 W/m/K
497.3 K, 9975 kPa | 0.07419 ± 0.0026 W/m/K
497.3 K, 19975 kPa | 0.08618 ± 0.003 W/m/K
497.3 K, 30375 kPa | 0.09354 ± 0.0034 W/m/K
497.3 K, 40275 kPa | 0.09941 ± 0.0037 W/m/K
497.3 K, 49575 kPa | 0.1037 ± 0.0039 W/m/K
497.65 K, 100 kPa | 0.03875 ± 0.0014 W/m/K
500.96 K, 100 kPa | 0.03915 ± 0.0014 W/m/K
523 K, 988 kPa | 0.0425 ± 0.0015 W/m/K
523 K, 2508 kPa | 0.04516 ± 0.0016 W/m/K
523 K, 17975 kPa | 0.0821 ± 0.0029 W/m/K
523 K, 20175 kPa | 0.08444 ± 0.003 W/m/K
523 K, 25475 kPa | 0.0885 ± 0.0032 W/m/K
523 K, 30475 kPa | 0.09129 ± 0.0033 W/m/K
523 K, 40175 kPa | 0.09665 ± 0.0036 W/m/K
523 K, 43475 kPa | 0.09824 ± 0.0036 W/m/K
523 K, 49975 kPa | 0.1014 ± 0.0038 W/m/K
526.4 K, 2200 kPa | 0.04473 ± 0.0016 W/m/K
526.4 K, 2300 kPa | 0.0457 ± 0.0016 W/m/K
526.4 K, 2400 kPa | 0.0457 ± 0.0016 W/m/K
526.4 K, 2500 kPa | 0.0457 ± 0.0016 W/m/K
526.4 K, 2600 kPa | 0.04565 ± 0.0016 W/m/K
526.4 K, 2700 kPa | 0.0456 ± 0.0016 W/m/K
526.4 K, 2800 kPa | 0.04599 ± 0.0016 W/m/K
526.4 K, 2900 kPa | 0.0465 ± 0.0016 W/m/K
526.4 K, 3000 kPa | 0.04712 ± 0.0016 W/m/K
526.4 K, 3300 kPa | 0.04771 ± 0.0017 W/m/K
526.4 K, 3600 kPa | 0.04853 ± 0.0017 W/m/K
526.4 K, 3700 kPa | 0.04799 ± 0.0017 W/m/K
526.4 K, 3800 kPa | 0.04888 ± 0.0017 W/m/K
526.54 K, 2200 kPa | 0.04492 ± 0.0016 W/m/K
526.57 K, 100 kPa | 0.04253 ± 0.0015 W/m/K
576.1 K, 100 kPa | 0.04957 ± 0.0017 W/m/K
576.1 K, 988 kPa | 0.05094 ± 0.0018 W/m/K
576.1 K, 2417 kPa | 0.05148 ± 0.0018 W/m/K
576.1 K, 2508 kPa | 0.05179 ± 0.0018 W/m/K
576.1 K, 4048 kPa | 0.05495 ± 0.0019 W/m/K
576.1 K, 20475 kPa | 0.08464 ± 0.003 W/m/K
576.1 K, 22475 kPa | 0.08627 ± 0.0031 W/m/K
576.1 K, 30275 kPa | 0.09057 ± 0.0033 W/m/K
576.1 K, 30575 kPa | 0.09 ± 0.0032 W/m/K
576.1 K, 40175 kPa | 0.09709 ± 0.0036 W/m/K
576.1 K, 40975 kPa | 0.09601 ± 0.0035 W/m/K
576.1 K, 51275 kPa | 0.1023 ± 0.0039 W/m/K
618.2 K, 7584 kPa | 0.06457 ± 0.0022 W/m/K
618.2 K, 9985 kPa | 0.06826 ± 0.0024 W/m/K
618.2 K, 11475 kPa | 0.07159 ± 0.0025 W/m/K
618.2 K, 12945 kPa | 0.07331 ± 0.0026 W/m/K
618.2 K, 12985 kPa | 0.07397 ± 0.0026 W/m/K
618.2 K, 14975 kPa | 0.07629 ± 0.0027 W/m/K
618.2 K, 18875 kPa | 0.08227 ± 0.0029 W/m/K and 0.08277 ± 0.0029 W/m/K
621.2 K, 100 kPa | 0.05581 ± 0.0019 W/m/K
621.2 K, 10375 kPa | 0.06836 ± 0.0024 W/m/K
621.2 K, 15375 kPa | 0.07737 ± 0.0027 W/m/K
621.2 K, 20275 kPa | 0.08383 ± 0.003 W/m/K
621.2 K, 22975 kPa | 0.08581 ± 0.0031 W/m/K
621.2 K, 30175 kPa | 0.09232 ± 0.0033 W/m/K
621.2 K, 39275 kPa | 0.09614 ± 0.0035 W/m/K
621.2 K, 40375 kPa | 0.09714 ± 0.0036 W/m/K
621.2 K, 49975 kPa | 0.1015 ± 0.0038 W/m/K
621.2 K, 53675 kPa | 0.1031 ± 0.0039 W/m/K
621.2 K, 53975 kPa | 0.103 ± 0.0039 W/m/K
